Consider 25 compounds from US20130225583A1, “SUBSTITUTED AMINO-TRIAZOLYL PDE10 INHIBITORS” (priority 2010, published 2013).

The structures appear in SMILES notation.

For the test, the target named is T1, human PDE10A2 (Homo sapiens, UniProt Q9Y233).
T1 construct: made in house; host or cells: AD293 cells, transiently transfected; The cytosolic supernatant of the lysate served as the enzyme
T1 sequence (Q9Y233 267-1055): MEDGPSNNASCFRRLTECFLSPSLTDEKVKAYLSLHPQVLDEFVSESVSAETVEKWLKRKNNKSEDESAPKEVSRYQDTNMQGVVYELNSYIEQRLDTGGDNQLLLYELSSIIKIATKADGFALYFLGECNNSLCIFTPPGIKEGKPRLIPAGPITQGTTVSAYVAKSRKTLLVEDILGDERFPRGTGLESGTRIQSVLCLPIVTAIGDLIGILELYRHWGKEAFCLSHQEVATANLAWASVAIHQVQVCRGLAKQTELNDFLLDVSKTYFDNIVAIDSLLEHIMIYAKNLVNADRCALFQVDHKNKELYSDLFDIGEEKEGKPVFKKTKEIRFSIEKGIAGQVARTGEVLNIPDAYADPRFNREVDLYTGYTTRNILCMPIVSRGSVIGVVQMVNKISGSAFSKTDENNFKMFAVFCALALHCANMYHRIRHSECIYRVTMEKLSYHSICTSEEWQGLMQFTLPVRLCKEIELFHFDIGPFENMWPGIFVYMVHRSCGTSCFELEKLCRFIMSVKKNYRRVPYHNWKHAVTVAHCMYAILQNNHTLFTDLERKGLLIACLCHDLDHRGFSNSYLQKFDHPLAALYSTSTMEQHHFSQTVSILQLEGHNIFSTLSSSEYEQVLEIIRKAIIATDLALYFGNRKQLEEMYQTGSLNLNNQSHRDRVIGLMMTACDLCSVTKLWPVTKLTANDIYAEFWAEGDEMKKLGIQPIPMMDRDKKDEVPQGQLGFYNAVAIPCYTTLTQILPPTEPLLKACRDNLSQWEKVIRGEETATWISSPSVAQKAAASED
The test can be described thus: PDE10 fluorescence polarization (IMAP FP) inhibition assay. The conditions noted are these: apparent inhibition constant; FAM-labeled cAMP 50 nM; lysate of AD293 cells transfected with human PDE10A2; room temperature; read-out: PDE10a Ki. The format is biochemical. As to the method: The activity of the compounds in accordance with the present invention as PDE10 inhibitors may be readily determined without undue experimentation using a fluorescence polarization (FP) methodology that is well known in the art (Huang, W., et al., J. Biomol Screen, 2002, 7: 215).
In a typical experiment the PDE 10 inhibitory activity of the compounds of the present invention was determined in accordance with the following experimental method. PDE 10A2 was amplified from human fetal brain cDNA (Clontech, Mountain View, Calif.) using a forward primer corresponding to nucleotides 56-77 of human PDE10A2 (Accession No. AF127480, Genbank Identifier 4894716), containing a Kozak consensus sequence, and a reverse primer corresponding to nucleotides 2406-2413 of human PDE10A2 (Accession No. AF127480, Genbank Identifier 4894716). Amplification with Easy-A polymerase (Stratagene, La Jolla, Calif.) was 95° C. for 2 minutes followed by thirty three cycles of 95° C. for 40 seconds, 55° C. for 30 seconds, and 72° C. for 2 minutes 48 seconds. Final extension was 72° C. for 7 minutes. The PCR product was TA cloned into pcDNA3.2-TOPO (Invitrogen, Carlsbad, Calif.) according to standard protocol. AD293 cells with 70-80% confluency were transiently transfected with human PDE10A2/pcDNA3.2-TOPO using Lipofectamine 2000 according to manufacturer specifications (Invitrogen, Carlsbad, Calif.). Cells were harvested 48 hours post-transfection and lysed by sonication (setting 3, 10×5 sec pulses) in a buffer containing 20 mM HEPES, 1 mM EDTA and protease inhibitor cocktail (Roche). Lysate was collected by centrifugation at 75,000×g for 20 minutes. Supernatant containing the cytoplasmic fraction was used for evaluation of PDE10A2 activity. The fluorescence polarization assay for cyclic nucleotide phosphodiesterases was performed using an IMAP® FP kit supplied by Molecular Devices, Sunnyvale, Calif. (product # R8139). IMAP® technology has been applied previously to phosphodiesterase assays (Huang, W., et al., J. Biomol Screen, 2002, 7: 215). Assays were performed at room temperature in 384-well microtiter plates with an incubation volume of 20.2 μL. Solutions of test compounds were prepared in DMSO and serially diluted with DMSO to yield 8 μL of each of 10 solutions differing by 3-fold in concentration, at 32 serial dilutions per plate. 100% inhibition is determined using a known PDE 10 inhibitor, which can be any compound that is present at 5,000 times its Ki value in the assay described as follows, such as papaverine (see Siuciak, et al. Neuropharmacology (2006) 51:386-396; Becker, et al. Behav Brain Res (2008) 186(2):155-60; Threlfell, et al., J Pharmacol Exp Ther (2009) 328(3):785-795), 2-{4-[pyridin-4-yl-1-(2,2,2-trifluoroethyl)-1H-pyrazol-3-yl]phenoxymethyl}quinoline succinic acid or 2-[4-(1-methyl-4-pyridin-4-yl-1H-pyrazol-3-yl)-phenoxymethyl]quinoline succinic acid (see Schmidt, et al. J Pharmacol Exp Ther (2008) 325:681-690; Threlfell, et al., J Pharmacol Exp Ther (2009) 328(3): 785-795). 0% of inhibition is determined by using DMSO (1% final concentrations). A Labcyte Echo 555 (Labcyte, Sunnyvale, Calif.) is used to dispense 200 nL from each well of the titration plate to the 384 well assay plate. A solution of enzyme ( 1/7000 dilution from aliquots; sufficient to produce 20% substrate conversion) and a separate solution of FAM-labeled cAMP PDE from Molecular Devices (product # R7506), at a final concentration of 50 nM are made in the assay buffer (10 mM Tris HCl, pH 7.2, 10 mM MgCl2, 0.05% NaN3 0.01% Tween-20, and 1 mM DTT). The enzyme is added to the assay plates by the addition of 10 μL of enzyme solution to each well, shaken to mix and incubated at room temperature for 60 minutes. The substrate is then added to the assay plates by the addition of 10 μL of substrate solution to each well, shaken to mix, and incubated at room temperature for 60 minutes. […]
In general terms: Fluorescence polarisation rises when a labelled molecule tumbles more slowly, as on binding a larger partner.
Turning to `COc1ccc(Cc2nc(N)nn2-c2cc(OC3CCCCC3)ncn2)cc1OC` [1-61, 1-(6-(cyclohexyloxy)pyrimidin-4-yl)-5-(3,4-dimethoxybenzyl)-1H-1,2,4-triazol-3-amine], the Ki came to 19 nM.

`COc1ccc(CNc2nc(Cc3ccc(OC)c(OC)c3)n(-c3cc(Oc4ccccn4)nc(C)n3)n2)cc1` [1-80, 5-(3,4-dimethoxybenzyl)-N-(4-methoxybenzyl)-1-(2-methyl-6-(pyridin-2-yloxy)pyrimidin-4-yl)-1H-1,2,4-triazol-3-amine]: the Ki was determined as 490 nM.

For `COc1ccc(CNc2nc(Cc3ccc(OC)c(OC)c3)n(-c3cc(C#Cc4ccccn4)nc(C)n3)n2)cc1` [1-84, 5-(3,4-dimethoxybenzyl)-N-(4-methoxybenzyl)-1-(2-methyl-6-(pyridin-2-ylethynyl)pyrimidin-4-yl)-1H-1,2,4-triazol-3-amine], the Ki stood at 19 nM.

Turning to `COc1ccc(COc2cc(-n3nc(N)nc3Cc3ccc(OC)c(OC)c3)ncn2)cc1` [1-36, 5-(3,4-dimethoxybenzyl)-1-(6-(4-methoxybenzyloxy)pyrimidin-4-yl)-1H-1,2,4-triazol-3-amine], the Ki stood at 550 nM.

Consider `COc1ccc(Cc2nc(N)nn2-c2cc(OCC3CCC3)ncn2)cc1OC` [1-62, 1-(6-(cyclobutylmethoxy)pyrimidin-4-yl)-5-(3,4-dimethoxybenzyl)-1H-1,2,4-triazol-3-amine], for which the Ki was determined as 8.6 nM.

As to `COc1ccc(Cc2nc(N)nn2-c2cc(=O)n(CCN3CCNC3=O)cn2)cc1OC` [1-57, 6-(3-amino-5-(3,4-dimethoxybenzyl)-1H-1,2,4-triazol-1-yl)-3-(2-(2-oxoimidazolidin-1-yl)ethyl)pyrimidin-4(3H)-one], the Ki stood at 110 nM.

`COc1ccc(Cc2nc(N)nn2-c2cc(=O)n(CC3(c4ccccc4)CC3(F)F)cn2)cc1OC` (stereo not shown) [1-59, 6-(3-amino-5-(3,4-dimethoxybenzyl)-1H-1,2,4-triazol-1-yl)-3-((2,2-difluoro-1-phenylcyclopropyl)methyl)pyrimidin-4(3H)-one]: the Ki was determined as 220 nM.

As to `COc1ccc(Cc2nc(N)nn2-c2cc(=O)n(CCN3CCOCC3)cn2)cc1OC` [1-48, 6-(3-amino-5-(3,4-dimethoxybenzyl)-1H-1,2,4-triazol-1-yl)-3-(2-morpholinoethyl)pyrimidin-4(3H)-one], the Ki was below 3.8 nM.

For the compound `COc1ccc(Cc2nc(N)nn2-c2cc(OCc3ccccc3-c3cccs3)ncn2)cc1OC` [1-43, 5-(3,4-dimethoxybenzyl)-1-(6-(2-(thiophen-2-yl)benzyloxy)pyrimidin-4-yl)-1H-1,2,4-triazol-3-amine], the Ki is 19 nM.

For `COc1ccc(Cc2nc(N)nn2-c2cc(=O)n(Cc3ccccc3C(F)(F)F)cn2)cc1OC` [1-50, 6-(3-amino-5-(3,4-dimethoxybenzyl)-1H-1,2,4-triazol-1-yl)-3-(2-(trifluoromethyl)benzyl)pyrimidin-4(3H)-one], the Ki is 190 nM.

On to `COc1ccccc1COc1cc(-n2nc(N)nc2Cc2ccc(OC)c(OC)c2)ncn1` [1-35, 5-(3,4-dimethoxybenzyl)-1-(6-(2-methoxybenzyloxy)pyrimidin-4-yl)-1H-1,2,4-triazol-3-amine], for which the Ki stood at 880 nM.

For `COc1ccc(Cc2nc(N)nn2-c2cc(=O)n(Cc3nc4ccccc4s3)cn2)cc1OC` [1-73, 6-(3-amino-5-(3,4-dimethoxybenzyl)-1H-1,2,4-triazol-1-yl)-3-(benzo[d]thiazol-2-ylmethyl)pyrimidin-4(3H)-one], the Ki is below 3.8 nM.

With `COc1ccc(Cc2nc(N)nn2-c2cc(OC3Cc4ccccc4C3)ncn2)cc1OC` [1-39, 1-(6-(2,3-dihydro-1H-inden-2-yloxy)pyrimidin-4-yl)-5-(3,4-dimethoxybenzyl)-1H-1,2,4-triazol-3-amine], the Ki amounted to 970 nM.

Regarding `COc1ccc(CNc2nc(Cc3ccc(OC)c(OC)c3)n(-c3ccccn3)n2)cc1` [1-13, 5-(3,4-dimethoxybenzyl)-N-(4-methoxybenzyl)-1-(pyridin-2-yl)-1H-1,2,4-triazol-3-amine], the Ki amounted to 780 nM.

On to `COc1ccc(Cc2nc(N)nn2-c2cc(OCC3(c4ccccc4)CC3(F)F)ncn2)cc1OC` (stereo not shown) [1-46, 1-(6-((2,2-difluoro-1-phenylcyclopropyl)methoxy)pyrimidin-4-yl)-5-(3,4-dimethoxybenzyl)-1H-1,2,4-triazol-3-amine], for which the Ki is 5.6 nM.

Turning to `COc1ccc(Cc2nc(N)nn2-c2cc(Oc3cccnc3)nc(C)n2)cc1OC` [1-79, 5-(3,4-dimethoxybenzyl)-1-(2-methyl-6-(pyridin-3-yloxy)pyrimidin-4-yl)-1H-1,2,4-triazol-3-amine], the Ki came out at 130 nM.

As for `COc1ccc(Cc2nc(N)nn2-c2cc(OCc3cncc(N4CCNCC4)n3)ncn2)cc1OC` [1-45, 5-(3,4-dimethoxybenzyl)-1-(6-((6-(piperazin-1-yl)pyrazin-2-yl)methoxy)pyrimidin-4-yl)-1H-1,2,4-triazol-3-amine], the Ki came to 570 nM.

In the case of `COc1ccc(Cc2nc(N)nn2-c2cc(=O)n(CCc3cccs3)cn2)cc1OC` [1-51, 6-(3-amino-5-(3,4-dimethoxybenzyl)-1H-1,2,4-triazol-1-yl)-3-(2-(thiophen-2-yl)ethyl)pyrimidin-4(3H)-one], the Ki amounted to 23 nM.

For the compound `COc1ccc(CNc2nc(Cc3ccc(OC)c(OC)c3)n(C)n2)cc1` [1-11, 5-(3,4-dimethoxybenzyl)-N-(4-methoxybenzyl)-1-methyl-1H-1,2,4-triazol-3-amine], the Ki was 24.8 nM.

In the case of `COc1ccc(CNc2nc(Cc3ccc(OC)c(OC)c3)n(-c3cc(Oc4ccccn4)nc(C)n3)n2)cc1` [1-76, 5-(3,4-dimethoxybenzyl)-N-(4-methoxybenzyl)-1-(2-methyl-6-(pyridin-2-yloxy)pyrimidin-4-yl)-1H 1,2,4-triazol-3-amine], the Ki is below 3.8 nM.

On to `COc1ccc(Cc2nc(N)nn2-c2cc(=O)n(Cc3nc4ccccc4[nH]3)cn2)cc1OC` [1-54, 3-((1H-benzo[d]imidazol-2-yl)methyl)-6-(3-amino-5-(3,4-dimethoxybenzyl)-1H-1,2,4-triazol-1-yl)pyrimidin-4(3H)-one], for which the Ki was found to be 390 nM.

With `COc1ccc(Cc2nc(N)nn2-c2cc(=O)n(Cc3cn4ccccc4n3)cn2)cc1OC` [1-55, 6-(3-amino-5-(3,4-dimethoxybenzyl)-1H-1,2,4-triazol-1-yl)-3-(imidazo[1,2-a]pyridin-2-ylmethyl)pyrimidin-4(3H)-one], the Ki was found to be 650 nM.

Regarding `COc1ccc(Cc2nc(N)nn2-c2ccccn2)cc1OC` [1-14, 5-(3,4-dimethoxybenzyl)-1-(pyridin-2-yl)-1H-1,2,4-triazol-3-amine], the Ki came out at 250 nM.

As to `COc1ccc(Cc2nc(N)nn2-c2cc(=O)n(CCc3ccccn3)cn2)cc1OC` [1-47, 6-(3-amino-5-(3,4-dimethoxybenzyl)-1H-1,2,4-triazol-1-yl)-3-(2-(pyridin-2-yl)ethyl)pyrimidin-4(3H)-one], the Ki was determined as 70 nM.

In the case of `COc1ccc(Cc2nc(N)nn2-c2cc(Oc3ccc4ccccc4n3)nc(C)n2)cc1OC` [1-83, 3-amino-5-(3,4-dimethoxybenzyl)-1-(2-methyl-6-(quinolin-2-yloxy)pyrimidin-4-yl)-1H-1,2,4-triazole-2,4-diium], the Ki stood at 47 nM.
